{
  "source": "patent US20250101338A1",
  "about": "“BIOMASS DERIVED SURFACE-ACTIVE COMPOSITIONS AND PRODUCTS” (Cambridge Glycoscience Ltd, priority 2021, published 2025)",
  "experiment": "Aqueous hydrolytic stability by UPLC-MS (Example 73)",
  "format": "physicochemical",
  "settings": "0.5 mg/mL",
  "procedure": "Determination of aqueous stability of the test compounds was performed using UPLC-MS. A test compound 10 mg/mL stock solution was prepared by dissolving Example 11 composition (N-decyl-N-acetylxylosylamine) (inventive surface-active composition) in DMSO. Buffer solutions, comprised of simple, commercially-available acidic or basic substances in deionized water were prepared at pH 1, pH 3, pH 4, pH 5, pH 6, pH 7, pH 9, pH 11 and pH 13.",
  "data": [
    {"smiles": "CCCCCCCCCCN(C(C)=O)C1OC[C@@H](O)[C@H](O)[C@H]1O", "note": "(stereo partly drawn) [Example 11 composition, N-decyl N-acetyl xylosylamine]", "values": [
      {"measurement": "Stability During 1-week (daily monitoring) (% of original concentration lost to degradation)", "setting": "Buffer pH 1, 25° C.", "result": "(<50%)"},
      {"measurement": "Stability During 12-hour Assay (% of original concentration lost to degradation)", "setting": "Buffer pH 1, 25° C.", "result": "(<1%) degradation"},
      {"measurement": "Stability During 1-week (daily monitoring) (% of original concentration lost to degradation)", "setting": "Buffer pH 3, 25° C.", "result": "(<0.1%) degradation"},
      {"measurement": "Stability During 12-hour Assay (% of original concentration lost to degradation)", "setting": "Buffer pH 3, 25° C.", "result": "(<0.1%) degradation"},
      {"measurement": "Stability During 1-week (daily monitoring)", "setting": "Buffer pH 4, 25° C.", "result": "Full stability"},
      {"measurement": "Stability During 12-hour Assay", "setting": "Buffer pH 4, 25° C.", "result": "Full stability"},
      {"measurement": "Stability During 1-week (daily monitoring)", "setting": "Buffer pH 5, 25° C.", "result": "Full stability"},
      {"measurement": "Stability During 12-hour Assay", "setting": "Buffer pH 5, 25° C.", "result": "Full stability"},
      {"measurement": "Stability During 1-week (daily monitoring)", "setting": "Buffer pH 6, 25° C.", "result": "Full stability"},
      {"measurement": "Stability During 12-hour Assay", "setting": "Buffer pH 6, 25° C.", "result": "Full stability"},
      {"measurement": "Stability During 1-week (daily monitoring)", "setting": "Buffer pH 7, 25° C.", "result": "Full stability"},
      {"measurement": "Stability During 12-hour Assay", "setting": "Buffer pH 7, 25° C.", "result": "Full stability"},
      {"measurement": "Stability During 1-week (daily monitoring)", "setting": "Buffer pH 9, 25° C.", "result": "Full stability"},
      {"measurement": "Stability During 12-hour Assay", "setting": "Buffer pH 9, 25° C.", "result": "Full stability"},
      {"measurement": "Stability During 1-week (daily monitoring) (% of original concentration lost to degradation)", "setting": "Buffer pH 11, 25° C.", "result": "(<0.1%) degradation"},
      {"measurement": "Stability During 12-hour Assay (% of original concentration lost to degradation)", "setting": "Buffer pH 11, 25° C.", "result": "(<0.1%) degradation"},
      {"measurement": "Stability During 1-week (daily monitoring) (% of original concentration lost to degradation)", "setting": "Buffer pH 13, 25° C.", "result": "(<10%)"},
      {"measurement": "Stability During 12-hour Assay (% of original concentration lost to degradation)", "setting": "Buffer pH 13, 25° C.", "result": "(<0.1%) degradation"}
    ]}
  ]
}
